Measured values published in ChEMBL document CHEMBL1201862, “PubChem BioAssay data set” (2004).
Where “and” joins values, the source holds several entries; their conditions need not be identical. Identical values can stand only once.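 Exposure lasted 48 hours, with cells grown in 96-well plates and compounds tested at five concentrations. At the GI50, growth is halved.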 Calls of active or inactive are those of the source. Cut-off read from the data, not from the text of the source: active = GI50 up to about 1.1 µM and inactive = higher.

Experiments:
Assay in all cases: inhibition of tumour cell growth, NCI panel, 48 h
HOP-62 = system: HOP-62
U-251 = system: U-251
LOX IMVI = system: LOX IMVI
SK-MEL-28 = system: SK-MEL-28
NCI-H23 = system: NCI-H23
M14 = system: M14
SF-539 = system: SF-539
SN12C = system: SN12C
NCI-H522 = system: NCI-H522
LXFL 529 = system: LXFL 529
SK-OV-3 = system: SK-OV-3
HCC 2998 = system: HCC 2998
786-0 = system: 786-0
UACC-62 = system: UACC-62
OVCAR-4 = system: OVCAR-4
A498 = system: A498
NCI/ADR-RES = system: NCI/ADR-RES
MDA-MB-435 = system: MDA-MB-435
DU-145 = system: DU-145
PC-3 = system: PC-3

Row | SMILES | GI50 (HOP-62) | GI50 (U-251) | GI50 (LOX IMVI) | GI50 (SK-MEL-28) | GI50 (NCI-H23) | GI50 (M14) | GI50 (SF-539) | GI50 (SN12C) | GI50 (NCI-H522) | GI50 (LXFL 529) | GI50 (SK-OV-3) | GI50 (HCC 2998) | GI50 (786-0) | GI50 (UACC-62) | GI50 (OVCAR-4) | GI50 (A498) | GI50 (NCI/ADR-RES) | GI50 (MDA-MB-435) | GI50 (DU-145) | GI50 (PC-3)
1 | O=C1[C@@H]2C(c3ccccc3F)=NO[C@@H]2C(=O)N1c1ccc(Cc2ccc(N3C(=O)[C@H]4C(c5ccccc5F)=NO[C@H]4C3=O)cc2)cc1 | > 100 µM (inactive) | > 100 µM (inactive) | > 100 µM (inactive) | > 100 µM (inactive) | > 100 µM (inactive) | > 100 µM (inactive) | > 100 µM (inactive) | > 100 µM (inactive) | > 100 µM (inactive) | > 100 µM (inactive) | > 100 µM (inactive) | > 100 µM (inactive) | > 100 µM (inactive) | > 100 µM (inactive) | > 100 µM (inactive) | > 100 µM (inactive) |  |  |  | 
2 | O=C(O)c1[nH]c(C(=O)O)c(CC(F)(F)C(F)(F)C(F)(F)F)c1CC(F)(F)C(F)(F)C(F)(F)F | > 100 µM (inactive) | > 100 µM (inactive) | > 100 µM (inactive) | > 100 µM (inactive) | > 100 µM (inactive) | > 100 µM (inactive) | > 100 µM (inactive) | > 100 µM (inactive) | > 100 µM (inactive) | > 100 µM (inactive) | > 100 µM (inactive) | > 100 µM (inactive) | > 100 µM (inactive) | > 100 µM (inactive) | > 100 µM (inactive) | > 100 µM (inactive) |  |  |  | 
3 | Nc1ncnc2c1ncn2C1CC(OCc2ccccc2[N+](=O)[O-])C(CO)O1 (stereo not given) | 24.3 µM (inactive) | 24.2 µM (inactive) | 20.9 µM (inactive) | 23.8 µM (inactive) | 23 µM (inactive) | 15.6 µM (inactive) | 44.5 µM (inactive) | 24.3 µM (inactive) | 13.7 µM (inactive) | 13.6 µM (inactive) | 21.7 µM (inactive) | 28.8 µM (inactive) | 43.4 µM (inactive) |  | 17.4 µM (inactive) | > 50 µM (inactive) |  |  |  | 
4 | COc1ccc(OC)c(/C=C/[N+](=O)[O-])c1 | 4.93 µM (inactive) and 2.78 µM (inactive) | 2.56 µM (inactive) and 3.76 µM (inactive) | 1.84 µM (inactive) and 948 nM (active) | 2.01 µM (inactive) and 3.48 µM (inactive) | 4.02 µM (inactive) and 2.41 µM (inactive) | 1.98 µM (inactive) and 3.36 µM (inactive) | 3.6 µM (inactive) and 2.89 µM (inactive) | 2.44 µM (inactive) and 3.77 µM (inactive) | 1.63 µM (inactive) and 1.16 µM (inactive) | 1.91 µM (inactive) | 5.53 µM (inactive) and 4.7 µM (inactive) |  | 1.79 µM (inactive) and 1.57 µM (inactive) |  | 4.31 µM (inactive) and 2.8 µM (inactive) | 3.92 µM (inactive) and 3.94 µM (inactive) | 2.96 µM (inactive) | 2.37 µM (inactive) | 3.33 µM (inactive) and 3.03 µM (inactive) | 
5 | CCCCCC(=O)Cc1cc(OC)cc2c1C(=O)Oc1cc(O)c(C(=O)O)c(CC(=O)CCCCC)c1O2 | > 100 µM (inactive) | 15.8 µM (inactive) | 77.8 µM (inactive) |  | 19.2 µM (inactive) | 63.2 µM (inactive) | > 10 µM (inactive) | > 10 µM (inactive) | 46.3 µM (inactive) | 55.5 µM (inactive) | 46.9 µM (inactive) | 48.5 µM (inactive) | 18.9 µM (inactive) | 20.6 µM (inactive) |  | 39 µM (inactive) |  |  |  | 
6 | NCCCC1NC(=O)/C(=C(O)/C=C/C2CCC[C@@H]2CC2SCCS2)C1=O (stereo not given in full) | > 100 µM (inactive) | > 100 µM (inactive) | > 100 µM (inactive) | > 100 µM (inactive) | > 100 µM (inactive) | > 100 µM (inactive) | > 100 µM (inactive) | > 100 µM (inactive) | 29 µM (inactive) | 75 µM (inactive) | > 100 µM (inactive) | > 100 µM (inactive) | > 100 µM (inactive) | > 100 µM (inactive) | > 100 µM (inactive) | > 100 µM (inactive) |  |  |  | 
7 | COc1ccc(C2CC(=O)c3c(O)cc(O)cc3O2)cc1O (stereo not given) | > 100 µM (inactive) | > 100 µM (inactive) | > 100 µM (inactive) | > 100 µM (inactive) | > 100 µM (inactive) | > 100 µM (inactive) | > 100 µM (inactive) | > 100 µM (inactive) | > 100 µM (inactive) | > 100 µM (inactive) | > 100 µM (inactive) | > 100 µM (inactive) | > 100 µM (inactive) | > 100 µM (inactive) | 65.2 µM (inactive) | > 100 µM (inactive) |  |  |  | 
8 | COc1ccc(NCc2cc(OC)c(OC)c(OC)c2)cc1 | 0.468 µM (active) | 0.431 µM (active) | 0.417 µM (active) | 0.396 µM (active) | 0.973 µM (active) | 0.265 µM (active) | 0.265 µM (active) | 0.818 µM (active) | 0.307 µM (active) | 0.408 µM (active) | 0.463 µM (active) | 0.362 µM (active) | 0.583 µM (active) | 0.274 µM (active) | 17.3 µM (inactive) | 0.521 µM (active) | 0.366 µM (active) | 0.0711 µM (active) | 857 nM (active) | 0.912 µM (active)
